Consider 2 compounds from patent publication US9629893B2, “Agent derived from tortoise spleen stimulating mammalian hemopoiesis” (BMR Solutions Ltd., priority 2003, dated 2017).

Series [1] concerns Whole body irradiated (7.0 Gy) C57Bl/6J mice. In words: Optimal FTGN ex vivo treatment concentration, normal or irradiated donor BMC transplanted into irradiated mice. The series is classed as in vivo. On the procedure:
Total body irradiated mice (7.0 Gy) were injected with 6×10^4 BMC previously treated with FTGN tetrapeptide at different concentrations (0.1, 0.5, 1.0, 10.0 and 50.0 μg/ml). Spleen colonies were measured 9 days after irradiation and compared to mice transplanted with BMC incubated only with PBS.
Total body irradiated mice (7.0 Gy) were injected with 6×10^4 BMC previously treated with FTGN tetrapeptide at different concentrations (0.1, 0.5, 1.0, 10.0 and 50.0 μg/ml). Bone marrow cells from femur were counted 4, 9 and 16 days after irradiation and compared to mice transplanted with BMC incubated only with PBS.
Donor BM cells incubated ex vivo in RPMI medium in the presence (10 μg/ml) or absence of FTGN tetrapeptide for 2 hours were transplanted into irradiated recipient mice (7.0 Gy.). Twenty days after transplant BMC/bone were counted.
In order to elucidate the optimal FTGN tetrapeptide treatment concentration needed to achieve maximum recovery of radiation damaged BMC, two sets of donor cells were examined. Donor BMC (4-6×10^6 cells/ml) from normal untreated C57 Bl/6J mice and from in vivo irradiated mice (4.5 Gy) collected 24 hours post-irradiation, were incubated for two hours with different concentrations of FTGN tetrapeptide (0.05; 0.1; 0.5; 1.0; 10 and 50 μg/ml). Whole body irradiated (7.0 Gy) C57Bl/6J mice were intravenously injected with 6×10^4 of each different donor treated cells or with control cells. The recovery of the hematopoietic system in the transplanted mice was evaluated from the 4th to the 30th day post-irradiation.

The test system of series [2] is Bone marrow cells. In words: In vitro incubation of BM cells with FTGN, cloning in methylcellulose medium (myeloid colonies). Format: cell-based, mice. To be noted: 10 μg/ml, 2 hours; for number of colonies: vs no tetrapeptide. As for the experimental part:
FIG. 7a-c: FTGN tetrapeptide biological activity tested in vitro. BM cells were incubated in vitro in RPMI medium in the presence (10 μg/ml) or absence of FTGN tetrapeptide for 2 hours. Cells were washed and cloned in methylcellulose-containing medium.
Bone marrow cells from normal (non irradiated) mice (4-6×10^6 cells/ml) were incubated for 2 hours with 10 μg/ml tetrapeptide; the cells were washed and cloned in cytokine-supplemented methylcellulose semi-solid medium.
Myeloid colonies formed after two weeks were counted.

Series [3] has as its system Irradiated mice (6.5 Gy). In words: In vivo treatment of irradiated mice with FTGN. To be noted: one or two intravenous 50 μg injections (2 or 2 and 24 hours post-irradiation), one month later. As for the experimental part:
Irradiated mice (6.5 Gy) were treated in vivo with the FTGN tetrapeptide. Thirty days after treatment BMC were counted.
Irradiated mice (6.5 Gy) were treated in vivo with the FTGN tetrapeptide. Thirty days after treatment CFU from BM were counted.
Irradiated mice (6.5 Gy) were treated with one or two intravenous 50 μg FTGN tetrapeptide injections (2 or 2 and 24 hours post-irradiation). BM nucleated cells count (FIG. 17) and CFUc (FIG. 18) were examined one month later.

For series [4], the system named is Whole body irradiated C57Bl/6J mice. In words: Ex vivo BMC treatment with FTGN, transplantation into whole body irradiated mice. Format: in vivo. As for the experimental part: Mice that were whole-body irradiated with a dose of 7.5 Gy (which is normally considered a lethal dose), were transplanted by intravenous injection with donor's bone marrow cells preincubated ex vivo with different concentrations of the synthetic tetrapeptide.
Bone marrow cells (BMC) were transplanted into mice by intravenous injection, usually 60,000 cells in 0.3 ml of PBS buffer after 2 hours incubation at 37° C. with the examined agent.
Mice spleen colonies (CFUs) were counted using the method of Till and McCulloch [Till J. E. and McCulloch E. A. Radiation Res. (1961) 14: 213] on 9th, 11th and 14th days after irradiation.
CFUc were assayed in semi-solid medium using 2×10^4 cells/plate.
Donor normal BMC (4-6×10^6 cells/nil) from C57 Bl/6J mice were incubated with different concentrations of FTGN tetrapeptide (0.05; 0.1; 0.5; 1.0; 10 and 50 μg/ml) for two hours. Whole body irradiated (7.0 Gy) C57Bl/6J mice were intravenously injected with 6×10^4 treated or control cells. The recovery of the hematopoietic system in the transplanted mice was evaluated from the 4th to the 30th day post-irradiation.

The test system is the same in series [5]. The series is described as above. The series is classed as in vivo. As to conditions: 7.5 Gy, treated vs untreated mice (summary).
Series [6] has as its system Mice irradiated with a high lethal dose (10 Gy). In words: Survival of lethally irradiated mice (10 Gy) transplanted with BM cells treated with FTGN. The series is classed as in vivo. As to conditions: 6×10^4 cells incubated one hour with 10 μg/ml, 30 days post-transplant. On the procedure: Lethally irradiated mice (10 Gy.) were transplanted with 60.000 donor BM cells previously incubated for 1 hour in the presence ([…]) or absence of FTGN tetrapeptide. Mice survival was pursue during 30 days and compared to control irradiated mice untreated or mice that were transplanted with untreated donor BMC.
Mice irradiated with a high lethal dose (10 Gy) were injected with 6×10^4 cells previously incubated for one hour with 10 μg/ml FTGN tetrapeptide. Mice survival was surveyed for a 30 days period post-transplant.

A short description of series [7]: FTGN tetrapeptide stability (HPLC). The series is classed as physicochemical. As for the experimental part:
FIG. 6a: HPLC chromatogram of FTGN tetrapeptide reconstituted in water after storage at −10° C. for one year.
FIG. 6c: HPLC chromatogram of FTGN tetrapeptide reconstituted in serum and incubated at 37° C. during 4 hours.
Dry freeze long term storage of the FTGN oligopeptide preserved its structural (FIG. 6a) and biological activities. The dry frozen tetrapeptide conserved its physical characteristics after reconstitution in purified water or serum (FIG. 6c) and was stable after four hours of incubation at 37° C.

The conditions of series [8]: cited from earlier work.
For series [9] the following is noted: side effects in patients; cited from earlier work.
Setting [10] is: 7.5 Gy, treated vs untreated mice (summary).
[11] abbreviates: 9th day, vs mice transplanted with non-treated cells.

With FTGN (listed as Testudo horsfieldi), in series [1] (4, 9 and 16 days after irradiation, 0.05-50 μg/ml tested), the “ex vivo treatment dose giving the greatest number of nucleated cell in BM” value was in the range of 1 to 10 µg/mL. For the same compound, the “ex vivo treatment dose giving the highest spleen colony forming units (CFUs) count” value in series [1] (9th day, 0.05-50 μg/ml tested) lay within 1 to 10 µg/mL. In addition, in series [1] (donor cells normal or from irradiated (4.5 Gy) mouse, 10 μg/ml, 2 hours), the “BM repopulation activity after transplant” value was “accelerated”. Besides, in series [2] (BM cells from normal (non irradiated) mice, colonies after two weeks), the myeloid colony number result was “increased colony number”. In addition, the number of colonies result in [2] (ex vivo irradiated cells (4.5 Gy)) is listed as “larger number of colonies”. For the same compound, in series [2] (in vivo irradiated cells (4.5 Gy)), the number of colonies entry is reported as “larger number of colonies”. Further, the “BM repopulation (BM nucleated cells count and CFUc)” value in [3] is on record as “increased the BM repopulation”. Also, the spleen weight result in [4] (4th day after transplantation, vs control) is reported as “No difference”. For the same compound, in [4] (setting [10]), the “number of bone marrow cells (BMC)” value is “increased”, the “number of white blood cells (WBC)” value is on record as “increased” and the spleen growth entry is given as “enhanced spleen growth”. In addition, in series [4] (setting [11]), the spleen colonies number result is on record as “augmented” and the spleen weight entry was “augmented”. Moreover, in [4] (16th day), the “peripheral blood white cells counts (WBC)” value is “improved” and the “total number of nucleated bone marrow cells per femur” value is listed as “doubled”. The spleen weight entry in series [4] (16th day, relative to control group) is reported as “lower”. The “colony-forming cells (CFUbm) in the bone marrow” value in series [4] (semi-solid medium, 9th and 16th day) was “improvement when low concentrations of the oligopeptide were used”. Also, the “number of spleen colonies” value in series [5] is given as “substantially enhanced”. In [6], the survival was 100%. In addition, the “structural and biological activities after dry freeze long term storage” value in series [7] (dry freeze storage, −10° C. for one year, reconstituted in water) was “preserved”. Moreover, the “stability after reconstitution in purified water or serum” value in series [7] (four hours of incubation at 37° C.) is reported as “stable”.
For `NCCCNCCSP(=O)(O)O` [amifostine], in series [8], the “stability at room temperature once reconstituted” value is “quite limited”. In addition, the “patients with nausea and vomiting” value in [9] is “approximately 53%”.
